These results are taken from publication PMC7730205, “Different Sensitivity of Control and MICU1- and MICU2-Ablated Trypanosoma cruzi Mitochondrial Calcium Uniporter Complex to Ruthenium-Based Inhibitors” (International Journal of Molecular Sciences, 2020).

Test [1] concerns the target T. cruzi mitochondrial Ca2+ uniporter complex (MCUC), control cells (Trypanosoma cruzi, UniProt Q4DHJ5+Q4DL37+Q4DYG3). Put plainly: Ca2+ uptake by digitonin-permeabilized control epimastigotes (calcium green-5N). In kind it is cell-based. The note with it: control (scrambled sgRNA) epimastigotes, ~30 µM Ca2+, 5 mM succinate, initial rate, read-out: IC50, inhibition of mitochondrial Ca2+ uptake. An excerpt:
(§1) We first tested the effect of different concentrations of inhibitors on Ca^2+ uptake, as measured by the change in fluorescence of calcium green 5-N, by digitonin-permeabilized control and TcMICU1-KO and TcMICU2-KO epimastigotes. These KO cells were obtained by the CRISPR/Cas9 method in previous work, and we used cells transfected with a scrambled sgRNA as control.
As is shown in Figure 2a, extramitochondrial Ca^2+ was sequestered in the mitochondria of control cells and released by the uncoupler FCCP.
(§2) Figure 2 Inhibition of mitochondrial Ca^2+ uptake by ruthenium-based compounds. Representative traces of Ca^2+ uptake by digitonin-permeabilized epimastigotes in control (a), TcMICU1-KO (b), and TcMICU2-KO (c) epimastigotes in the presence of different Ru360 concentrations. C, control cells; TcMICU1-KO cells; and TcMICU2-KO cells. The reaction was started after adding 50 μM digitonin (Dig) in the presence of ~30 μM CaCl2, 5 mM succinate, and 0.5 μM calcium green-5N, in the presence or absence of Ru360. Where indicated, 4 μM FCCP was added. (d–f) Dose–response inhibition of the initial rate of mitochondrial Ca^2+ uptake in control (C), TcMICU1-KO (1-KO), and TcMICU2-KO (2-KO) cells treated with RuRed (d), Ru360 (e) or Ru265 (f).
(§3) Cells were collected by centrifugation at 1000× g for 7 min and washed twice with buffer A with glucose (BAG: 116 mM NaCl, 5.4 mM KCl, 0.8 mM MgSO4, 5.5 mM D-glucose, and 50 mM HEPES, pH 7.0). […] Mitochondrial Ca^2+ uptake was initiated by the addition of ~30 μM of free calcium, which was calculated using the software Maxchelator Calculator v1.2 (https://somapp.ucdmc.ucdavis.edu/pharmacology/bers/maxchelator/CaEGTA-NIST.htm). […] Fluorescence changes were monitored in an F-7000 fluorescence spectrophotometer (Hitachi, Dallas, TX, USA) with excitation at 506 nm and emission at 532 nm. […] Kd for Ca^2+ indicator probes in our conditions was determined, according to Chweih et al.. Uptake rate inhibitions were calculated as the first derivative of the absolute values of the slope by using the SLOPE Excel function for 200 points (300 to 500 s). […]

Test [2] has as its target T. cruzi mitochondrial Ca2+ uniporter complex, TcMICU1-KO cells (Trypanosoma cruzi, UniProt Q4DHJ5+Q4DL37+Q4DYG3). Put plainly: Ca2+ uptake by digitonin-permeabilized TcMICU1-KO epimastigotes (calcium green-5N). In kind it is cell-based. The note with it: ~30 µM Ca2+, 5 mM succinate, initial rate, read-out: IC50, inhibition of mitochondrial Ca2+ uptake.
Excerpt: as §1, §2
(§4) When dose–response effects were measured in TcMICU1-KO and TcMICU2-KO cells we noticed that these cells were, in general, more sensitive to the inhibitors.
as §3

Test [3] addresses T. cruzi mitochondrial Ca2+ uniporter complex, TcMICU2-KO cells (Trypanosoma cruzi, UniProt Q4DHJ5+Q4DL37+Q4DYG3). The experiment in a line: Ca2+ uptake by digitonin-permeabilized TcMICU2-KO epimastigotes (calcium green-5N). In kind it is cell-based. Particulars: ~30 µM Ca2+, 5 mM succinate, initial rate, read-out: IC50, inhibition of mitochondrial Ca2+ uptake.
Excerpt: as §1, §2, §4, §3

For test [4], the system named is T. cruzi epimastigotes (control, TcMICU1-KO, TcMICU2-KO). Put plainly: Mitochondrial membrane potential of digitonin-permeabilized epimastigotes (safranine O). In kind it is cell-based, Trypanosoma cruzi. Particulars: TcMICU1-KO or TcMICU2-KO cells, succinate. An excerpt: To determine whether the defect in mitochondrial Ca^2+ uptake in the presence of inhibitors was not secondary to mitochondrial membrane depolarization, we measured the mitochondrial membrane potential (Δψm) of digitonin-permeabilized epimastigotes using safranine O in the presence of succinate as mitochondrial substrate.
Figure 3 Effect of inhibitors on the mitochondrial membrane potential of epimastigotes. Changes in mitochondrial membrane potential (Δψm) of digitonin-permeabilized epimastigotes as detected by changes in safranine O fluorescence in control (a), TcMICU1-KO (b), and TcMICU2-KO (c) epimastigotes in the absence or presence of inhibitors. Cells (5 × 10^7) were added to the reaction buffer (2 mL) containing 0.2% BSA, 5 mM succinate, 50 μM EGTA and 5 μM safranine O. The reaction was started with 50 μM digitonin (DIG) in the presence or absence of the inhibitor, and 250 μM ADP, 1.5 μM carboxyatractyloside (CAT), 50 μM CaCl2 (Ca^2+), 200 μM EGTA, and 4 μM FCCP were added when indicated. A decrease in fluorescence after permeabilization with digitonin indicated the accumulation of the dye in energized mitochondria. The addition of ADP produced a small dissipation of membrane potential, indicating ADP phosphorylation. Δψm returned to its initial level after the addition of the adenine nucleotide translocator inhibitor CAT. The addition of FCCP collapsed the membrane potential. (d) Changes in safranine O fluorescence after digitonin addition (between 30 and 60 s) in control (C), TcMICU1-KO and TcMICU2-KO epimastigotes. […] Changes in safranine O fluorescence in control (C) (e), TcMICU1-KO (1-KO) (f), and TcMICU2-KO (2-KO) (g) epimastigotes after addition of ADP from three experiments like that shown in panels (a–c).
Estimation of mitochondrial membrane potential in situ was done spectrofluorometrically using the indicator dye safranine O, as described previously. […] Fluorescence changes were monitored using the Hitachi F-7000 spectrofluorometer (excitation of 495 nm and emission of 586 nm).

Another test deals with mammalian mitochondria. Particulars: cited from earlier work.
The subject of test [5] is T. cruzi trypomastigotes. Put plainly: In vitro infection assay of Vero cells by trypomastigotes. In kind it is cell-based, Trypanosoma cruzi. Particulars: 30 min preincubation with 1 µM antimycin A; 4 h on Vero cells. As to the method:
(§5) We analyzed the growth rate of epimastigotes in LIT medium at different Ru265 concentrations (1 µM, 5 µM, and 10 µM). […] The presence of metabolic inhibitors affects attachment and invasion of T. cruzi trypomastigotes to mammalian cells since these are an active process which depends on the expenditure of parasite energy. Preincubation of trypomastigotes for 30 min with antimycin A, which blocks electron transport from cytochrome b to c1, decreased the ability of trypomastigotes to attach to glutaraldehyde-fixed cells (Figure 4b) and invade intact host cells (Figure 4c).
(§6) Figure 4 Effect of Ru265 on Trypanosoma cruzi. (a) Effect of Ru265 on epimastigote growth. […] After 1 h of incubation at 37 °C, the cells were washed, and the number of attached trypomastigotes was counted. […] After 4 h of incubation at 37 °C, the cells were washed, and the number of intracellular parasites was counted. […] (f) Routine respiration (initial oxygen flux values), leak respiration after the addition of 0.5 µg/mL of oligomycin A, and electron transfer system (ETS) capacity after the sequential additions of FCCP (0.2 μM each) were measured for each condition. […] (g) Representative experiment showing mitochondrial Ca^2+ uptake by intact epimastigotes in relative fluorescence units (RFU). […] (h) Changes in fluorescence (before and after ionomycin addition) from three experiments like that shown in panel (g). […]

Test [6] has as its system T. cruzi trypomastigotes. Put plainly: Trypomastigote attachment assay to glutaraldehyde-fixed Vero cells. In kind it is cell-based, Trypanosoma cruzi. Particulars: 30 min preincubation with 1 µM antimycin A; 1 h at 37 °C on fixed Vero cells. How it is done: as §5, §6

Chain of T. cruzi mitochondrial Ca2+ uniporter complex, TcMICU2-KO cells (Q4DL37 entry or part of it): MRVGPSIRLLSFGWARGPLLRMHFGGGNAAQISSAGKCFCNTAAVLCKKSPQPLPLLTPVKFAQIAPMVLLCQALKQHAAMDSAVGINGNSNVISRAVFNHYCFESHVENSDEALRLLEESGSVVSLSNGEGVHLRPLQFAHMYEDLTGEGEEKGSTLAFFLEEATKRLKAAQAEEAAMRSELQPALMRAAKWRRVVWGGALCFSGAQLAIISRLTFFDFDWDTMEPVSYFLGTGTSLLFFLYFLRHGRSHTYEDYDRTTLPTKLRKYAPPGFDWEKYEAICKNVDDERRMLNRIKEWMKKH
Chain of T. cruzi mitochondrial Ca2+ uniporter complex, TcMICU2-KO cells (Q4DYG3 entry or part of it): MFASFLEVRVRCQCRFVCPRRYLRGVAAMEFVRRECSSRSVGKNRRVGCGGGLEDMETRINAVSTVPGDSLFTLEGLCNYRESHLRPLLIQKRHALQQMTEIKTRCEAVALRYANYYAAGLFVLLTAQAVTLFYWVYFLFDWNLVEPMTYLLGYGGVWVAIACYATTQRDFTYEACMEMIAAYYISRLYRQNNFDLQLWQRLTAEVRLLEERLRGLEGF
Chain of T. cruzi mitochondrial Ca2+ uniporter complex, TcMICU2-KO cells (Q4DHJ5 entry or part of it): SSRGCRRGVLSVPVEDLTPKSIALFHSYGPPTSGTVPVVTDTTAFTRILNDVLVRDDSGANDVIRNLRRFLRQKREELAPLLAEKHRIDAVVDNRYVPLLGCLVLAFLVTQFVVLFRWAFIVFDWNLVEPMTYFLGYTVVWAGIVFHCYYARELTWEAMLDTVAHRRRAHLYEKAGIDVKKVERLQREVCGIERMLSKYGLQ
Chain of T. cruzi mitochondrial Ca2+ uniporter complex (MCUC), control cells (Q4DL37 entry or part of it): as the sequence (Q4DL37 entry or part of it) above
Chain of T. cruzi mitochondrial Ca2+ uniporter complex (MCUC), control cells (Q4DHJ5 entry or part of it): as the sequence (Q4DHJ5 entry or part of it) above
Chain of T. cruzi mitochondrial Ca2+ uniporter complex (MCUC), control cells (Q4DYG3 entry or part of it): as the sequence (Q4DYG3 entry or part of it) above
Chain of T. cruzi mitochondrial Ca2+ uniporter complex (MCUC), control cells (Q4E667 entry or part of it, further chain): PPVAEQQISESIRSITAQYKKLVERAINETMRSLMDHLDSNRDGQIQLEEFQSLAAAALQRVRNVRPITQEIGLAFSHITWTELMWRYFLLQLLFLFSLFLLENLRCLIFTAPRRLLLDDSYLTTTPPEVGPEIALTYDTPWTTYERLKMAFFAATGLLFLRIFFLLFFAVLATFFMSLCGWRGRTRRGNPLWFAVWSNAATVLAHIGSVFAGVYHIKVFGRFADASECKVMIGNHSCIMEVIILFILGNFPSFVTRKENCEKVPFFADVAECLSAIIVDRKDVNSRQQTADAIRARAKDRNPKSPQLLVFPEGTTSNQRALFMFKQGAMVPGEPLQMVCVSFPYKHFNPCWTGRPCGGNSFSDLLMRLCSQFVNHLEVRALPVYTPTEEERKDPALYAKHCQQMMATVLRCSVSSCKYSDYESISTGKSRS
Chain of T. cruzi mitochondrial Ca2+ uniporter complex, TcMICU1-KO cells (Q4DHJ5 entry or part of it): as the sequence (Q4DHJ5 entry or part of it) above
Chain of T. cruzi mitochondrial Ca2+ uniporter complex, TcMICU1-KO cells (Q4DL37 entry or part of it): as the sequence (Q4DL37 entry or part of it) above
Chain of T. cruzi mitochondrial Ca2+ uniporter complex, TcMICU1-KO cells (Q4DYG3 entry or part of it): as the sequence (Q4DYG3 entry or part of it) above

For the compound `N.N.N.N.N.N.N.N.[Cl][Ru+3].[NH]=[Ru][Cl]` [Ru265], the IC50 in test [1] was 26.3 ± 2 nM; in test [2], 12.1 ± 2.3 nM; in test [3], 14.1 ± 1.3 nM.

Turning to `N.N.N.N.N.N.N.N.N.N.N.N.N.N.[Cl-].[Cl-].[Cl-].[Cl-].[Cl-].[Cl-].[O-2].[O-2].[Ru+3].[Ru+3].[Ru+4]` [RuRed, ruthenium red], the IC50 came out at 117 ± 16.9 nM in test [1], 148 ± 21.7 nM in test [2] and 11.9 ± 1.4 nM in test [3]. Moreover, the “Effect on mitochondrial membrane potential (Δψm) and response to ADP” value in test [4] is “did not significantly affect”. Also, in the test with mammalian mitochondria, the “Effective concentration range in mammalian mitochondria” value is listed as “effective in the submicromolar range”.

As for `CCCCCC[C@H]1C(=O)O[C@H](C)[C@H](NC(=O)c2cccc(NC=O)c2O)C(=O)O[C@@H](C)[C@@H]1OC(=O)CC(C)C` [antimycin A], in the test with T. cruzi trypomastigotes [5], the “Ability of trypomastigotes to invade intact host cells” value is “decreased”. Moreover, the “Ability of trypomastigotes to attach to glutaraldehyde-fixed cells” value in the test with T. cruzi trypomastigotes [6] is “decreased”.

For Ru360, the 50% inhibitory concentration (IC50) worked out at 186 ± 15.2 nM in test [1], 46.7 ± 2.7 nM in test [2] and 63.6 ± 6.9 nM in test [3]. The “Effect on mitochondrial membrane potential (Δψm) and response to ADP” value in test [4] is “did not significantly affect”.
